Data set [1] relates to human Factor XI mRNA. The data set can be described thus: Dose-dependent inhibition in HepG2 cells, lipofectin (Example 5). The class given is cell-based. The conditions noted are these: 16 hours. The method, then: (§1) Cells were plated at a density of 10,000 cells per well and transfected using lipofectin reagent with 2.34 nM, 4.69 nM, 9.375 nM, 18.75 nM, 37.5 nM, and 75 nM concentrations of antisense oligonucleotide, as specified in Table 11. After a treatment period of approximately 16 hours, RNA was isolated from the cells and human Factor XI mRNA levels were measured by quantitative real-time PCR. Human Factor XI primer probe set RTS 2966 was used to measure mRNA levels. Factor XI mRNA levels were adjusted according to total RNA content, as measured by RIBOGREEN®. Results are presented as percent inhibition of human Factor XI, relative to untreated control cells.

Data set [2] concerns human Factor XI mRNA. The data set can be described thus: Dose-dependent inhibition in HepB3 cells, lipofectin (Example 7). The class given is cell-based. The conditions noted are these: approx. 16 h. The method, then: as §1, with “4,000” for “10,000”, “2.3” for “2.34”, “4.7” for “4.69”, “9.4” for “9.375”, “14.” for “11.”, “of” for “of human”
Data set [3] is described as follows: Tolerability in Sprague-Dawley rats: body and organ weight (Example 19). The class given is in vivo. The conditions noted are these: 50 mg/kg s.c. twice per week for 6 weeks, change over weight at start of study. The text has this:
Urine samples were taken before the start of treatment.
The body weights are presented in Table 78 and are expressed as a percent change over the weights taken at the start of the study.

Data set [4] relates to human Factor XI mRNA. Kind of data set: Antisense inhibition in HepG2 cells by microwalk gapmers, 75 nM, lipofectin (Example 3). The class given is cell-based. The settings on record: HepG2 cells, 75 nM. Summed up:
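HepG2 cells (10,000 per well) were transfected with 75 nM gapmer using lipofectin and treated for about 24 h. Factor XI mRNA was quantified by real-time PCR, normalized to RiboGreen total RNA and expressed as percent inhibition versus untreated controls.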

The mark [5] stands for this setting: oligonucleotides targeted to nucleobases 1275 to 1318 of SEQ ID NO: 1.

With “416825 (antisense GCCCTTCATGTCTAGGTCCA; 5-10-5 gapmer, wing sugar chemistry not given here, further chemistry not given here) [compound 416825]”, the “percent inhibition of human Factor XI mRNA, relative to untreated control cells” value in the data set on human Factor XI mRNA [1] (2.34 nM) is given as 4%; with human Factor XI mRNA [1] (4.69 nM) it was 22%; in the data set on human Factor XI mRNA [1] (9.375 nM), 39%; in the data set on human Factor XI mRNA [1] (18.75 nM), 57%; with human Factor XI mRNA [1] (37.5 nM), 79%; with human Factor XI mRNA [1] (75 nM) it was 89%. In addition, the “percent inhibition of human Factor XI mRNA” value with human Factor XI mRNA [2] (2.3 nM) was 0%; in the data set with human Factor XI mRNA [2] (4.7 nM) it was 15%; with human Factor XI mRNA [2] (9.4 nM), 34%; in the data set with human Factor XI mRNA [2] (18.75 nM), 36%; with human Factor XI mRNA [2] (37.5 nM) it was 53%; in the data set with human Factor XI mRNA [2] (75 nM) it was 59%. Moreover, in data set [3], the “Percent change in Body weight” value is −18%.

Take “416838 (antisense GCAACCGGGATGATGAGTGC; 5-10-5 gapmer, wing sugar chemistry not given here, further chemistry not given here) [compound 416838]”: the “% inhibition of human Factor XI mRNA levels” value (shortened to “% inhibition”) in the data set on human Factor XI mRNA [4] (oligonucleotides targeted to nucleobases 1018 to 1042 of SEQ ID NO: 1) is listed as 94%. Also, the “percent inhibition of human Factor XI mRNA, relative to untreated control cells” value is 21% with human Factor XI mRNA [1] (2.34 nM); 37% in the data set with human Factor XI mRNA [1] (4.69 nM); 50% in the data set with human Factor XI mRNA [1] (9.375 nM); 63% in the data set with human Factor XI mRNA [1] (18.75 nM); 74% in the data set on human Factor XI mRNA [1] (37.5 nM); 83% with human Factor XI mRNA [1] (75 nM). Also, the “percent inhibition of human Factor XI mRNA” value was 23% in the data set on human Factor XI mRNA [2] (2.3 nM); 34% in the data set with human Factor XI mRNA [2] (4.7 nM); 43% in the data set on human Factor XI mRNA [2] (9.4 nM); 59% in the data set with human Factor XI mRNA [2] (18.75 nM); 71% with human Factor XI mRNA [2] (37.5 nM); 56% with human Factor XI mRNA [2] (75 nM). In addition, in data set [3], the “Percent change in Body weight” value is recorded as −23%.

Take “416850 (antisense TGCACAGTTTCTGGCAGGCC; 5-10-5 gapmer, wing sugar chemistry not given here, further chemistry not given here) [compound 416850]”: the “% inhibition” value with human Factor XI mRNA [4] (setting [5]) amounted to 93%. The “percent inhibition of human Factor XI mRNA, relative to untreated control cells” value in the data set on human Factor XI mRNA [1] (2.34 nM) amounted to 24%; in the data set with human Factor XI mRNA [1] (4.69 nM), 31%; in the data set on human Factor XI mRNA [1] (9.375 nM), 49%; in the data set with human Factor XI mRNA [1] (18.75 nM), 55%; in the data set on human Factor XI mRNA [1] (37.5 nM), 70%; in the data set on human Factor XI mRNA [1] (75 nM), 77%. For the same substance, the “percent inhibition of human Factor XI mRNA” value in the data set on human Factor XI mRNA [2] (2.3 nM) stood at 22%; in the data set with human Factor XI mRNA [2] (4.7 nM), 32%; in the data set on human Factor XI mRNA [2] (9.4 nM) it was 43%; with human Factor XI mRNA [2] (18.75 nM) it was 56%; in the data set with human Factor XI mRNA [2] (37.5 nM), 75%; with human Factor XI mRNA [2] (75 nM) it was 60%. In addition, in data set [3], the “Percent change in Body weight” value is on record as −33%.

Take “416858 (antisense ACGGCATTGGTGCACAGTTT; 5-10-5 gapmer, wing sugar chemistry not given here, further chemistry not given here) [compound 416858]”: the “% inhibition” value in the data set on human Factor XI mRNA [4] (setting [5]) is recorded as 93%. In addition, the “percent inhibition of human Factor XI mRNA, relative to untreated control cells” value came out at 11% with human Factor XI mRNA [1] (2.34 nM); 35% with human Factor XI mRNA [1] (4.69 nM); 46% in the data set with human Factor XI mRNA [1] (9.375 nM); 61% in the data set on human Factor XI mRNA [1] (18.75 nM); 75% in the data set on human Factor XI mRNA [1] (37.5 nM); 77% with human Factor XI mRNA [1] (75 nM). The “percent inhibition of human Factor XI mRNA” value worked out at 17% with human Factor XI mRNA [2] (2.3 nM); 34% in the data set on human Factor XI mRNA [2] (4.7 nM); 43% with human Factor XI mRNA [2] (9.4 nM); 57% in the data set with human Factor XI mRNA [2] (18.75 nM); 74% in the data set on human Factor XI mRNA [2] (37.5 nM); 62% in the data set on human Factor XI mRNA [2] (75 nM). Further, the “Percent change in Body weight” value in data set [3] is listed as −21%.

As for “416864 (antisense GGCAGCGGACGGCATTGGTG; 5-10-5 gapmer, wing sugar chemistry not given here, further chemistry not given here) [compound 416864]”, the “% inhibition” value in the data set on human Factor XI mRNA [4] (setting [5]) came out at 93%. Also, the “percent inhibition of human Factor XI mRNA, relative to untreated control cells” value in the data set with human Factor XI mRNA [1] (2.34 nM) is 13%; in the data set with human Factor XI mRNA [1] (4.69 nM), 34%; in the data set on human Factor XI mRNA [1] (9.375 nM), 42%; with human Factor XI mRNA [1] (18.75 nM), 65%; in the data set on human Factor XI mRNA [1] (37.5 nM), 68%; in the data set with human Factor XI mRNA [1] (75 nM) it was 80%. Also, the “percent inhibition of human Factor XI mRNA” value is reported as 24% in the data set on human Factor XI mRNA [2] (2.3 nM); 37% with human Factor XI mRNA [2] (4.7 nM); 42% in the data set on human Factor XI mRNA [2] (9.4 nM); 66% in the data set with human Factor XI mRNA [2] (18.75 nM); 76% with human Factor XI mRNA [2] (37.5 nM); 63% in the data set with human Factor XI mRNA [2] (75 nM). For the same substance, in data set [3], the “Percent change in Body weight” value was −24%.

As to “416925 (antisense GGTGCACAGTTTCTGGCAGG; 3-14-3 chimeric gapmer, wing sugar chemistry not given here, further chemistry not given here) [compound 416925]”, in the data set on human Factor XI mRNA [4] (setting [5]), the “% inhibition” value was 98%. Further, the “percent inhibition of human Factor XI mRNA, relative to untreated control cells” value stood at 24% with human Factor XI mRNA [1] (2.34 nM); 34% with human Factor XI mRNA [1] (4.69 nM); 45% with human Factor XI mRNA [1] (9.375 nM); 56% with human Factor XI mRNA [1] (18.75 nM); 67% in the data set with human Factor XI mRNA [1] (37.5 nM); 72% with human Factor XI mRNA [1] (75 nM). Besides, the “percent inhibition of human Factor XI mRNA” value with human Factor XI mRNA [2] (2.3 nM) is recorded as 26%; in the data set with human Factor XI mRNA [2] (4.7 nM), 33%; in the data set with human Factor XI mRNA [2] (9.4 nM), 45%; in the data set on human Factor XI mRNA [2] (18.75 nM) it was 59%; with human Factor XI mRNA [2] (37.5 nM), 72%; in the data set with human Factor XI mRNA [2] (75 nM) it was 60%. In addition, the “Percent change in Body weight” value in data set [3] is listed as −32%.

In the case of “416999 (antisense GCACAGTTTCTGGCAGGCCT; 2-13-5 gapmer, wing sugar chemistry not given here, further chemistry not given here) [compound 416999]”, in the data set with human Factor XI mRNA [4] (setting [5]), the “% inhibition” value is given as 92%. In addition, the “percent inhibition of human Factor XI mRNA, relative to untreated control cells” value with human Factor XI mRNA [1] (2.34 nM) is listed as 10%; in the data set on human Factor XI mRNA [1] (4.69 nM), 26%; with human Factor XI mRNA [1] (9.375 nM) it was 42%; with human Factor XI mRNA [1] (18.75 nM), 62%; in the data set with human Factor XI mRNA [1] (37.5 nM), 72%; with human Factor XI mRNA [1] (75 nM), 80%. Moreover, the “percent inhibition of human Factor XI mRNA” value in the data set on human Factor XI mRNA [2] (2.3 nM) is 19%; in the data set on human Factor XI mRNA [2] (4.7 nM) it was 33%; with human Factor XI mRNA [2] (9.4 nM) it was 42%; in the data set on human Factor XI mRNA [2] (18.75 nM), 60%; in the data set on human Factor XI mRNA [2] (37.5 nM) it was 71%; with human Factor XI mRNA [2] (75 nM), 59%. Further, the “Percent change in Body weight” value in data set [3] was −37%.

The values above are taken from US20120083522A1, “MODULATION OF INFLAMMATORY RESPONSES BY FACTOR XI” (Isis Pharmaceuitcals, inc., priority 2009, published 2012).
